According to ChEMBL document CHEMBL1641404 (Bioorg Med Chem Lett, 2011):

Legend:
Assay type in all cases: ADME, organism-based
[1] = Half life in Sprague-Dawley rat 1 mg/kg, iv; design: dose 1 mg/kg, route intravenous; details: in vivo
Rattus norvegicus = test: Cmax in Sprague-Dawley rat 5 mg/kg, po; design: dose 5 mg/kg, route oral; details: in vivo
[2] = Half life in CD-1 mouse 1 mg/kg, iv; design: dose 1 mg/kg, route intravenous; details: in vivo
[3] = Oral bioavailability in CD-1 mouse 10 mg/kg; details: in vivo
[4] = Volume of distribution in CD-1 mouse 1 mg/kg, iv; design: dose 1 mg/kg, route intravenous; details: in vivo
[5] = AUC (0 to t) in Sprague-Dawley rat 1 mg/kg, iv; design: dose 1 mg/kg, route intravenous; details: plasma
[6] = Clearance in CD-1 mouse 1 mg/kg, iv; design: dose 1 mg/kg, route intravenous; details: in vivo
[7] = Oral bioavailability in Sprague-Dawley rat 5 mg/kg; details: in vivo
[8] = Plasma concentration in mouse bearing ALK-positive tumor xenografts at 30 mg/kg, po up to 12 hrs; design: dose 30 mg/kg, route oral
Mus musculus = test: Cmax in CD-1 mouse 10 mg/kg, po; design: dose 10 mg/kg, route oral; details: in vivo
[9] = AUC (0 to t) in CD-1 mouse 1 mg/kg, iv; design: dose 1 mg/kg, route intravenous; details: plasma
[10] = Volume of distribution in Sprague-Dawley rat 1 mg/kg, iv; design: dose 1 mg/kg, route intravenous; details: in vivo
[11] = Clearance in Sprague-Dawley rat 1 mg/kg, iv; design: dose 1 mg/kg, route intravenous; details: in vivo
[12] = AUC (0 to t) in Sprague-Dawley rat 5 mg/kg, po; design: dose 5 mg/kg, route oral; details: plasma
[13] = Tmax in Sprague-Dawley rat 5 mg/kg, po; design: dose 5 mg/kg, route oral; details: in vivo
[14] = Half life in CD-1 mouse 10 mg/kg, po; design: dose 10 mg/kg, route oral; details: in vivo
[15] = AUC (0 to t) in CD-1 mouse 10 mg/kg, po; design: dose 10 mg/kg, route oral; details: plasma
[16] = Tmax in CD-1 mouse 10 mg/kg, po; design: dose 10 mg/kg, route oral; details: in vivo

Compound: COc1cc2c(cc1Nc1ncc(Cl)c(Nc3ccc(N4CCOCC4)cc3OC)n1)CCN(CC(=O)N(C)C)CC2
- half-life [1]: 48 min
- Cmax (Rattus norvegicus): 0.306 µg/mL
- half-life [2]: 42 min
- bioavailability [3]: 64%
- Vd [4]: 1.2 L/kg
- AUC(0-t) [5]: 1.02 µg·h/mL
- clearance [6]: 1.2 L/h/kg
- bioavailability [7]: 30%
- concentration at 12 h [8]: 3 µM
- Cmax (Mus musculus): 1.19 µg/mL
- AUC(0-t) [9]: 0.83 µg·h/mL
- Vd [10]: 1.1 L/kg
- clearance [11]: 0.96 L/h/kg
- AUC(0-t) [12]: 1.4 µg·h/mL
- Tmax [13]: 198 min
- half-life [14]: 186 min
- AUC(0-t) [15]: 3.9 µg·h/mL
- Tmax [16]: 30 min
